# According to patent US6030823A, “D-aminoacylase” (Daicel Chemical Industries, Ltd., priority 1998, dated 2000):
# Values joined by “and” are separate entries in the source; they are usually repeats but may differ in a detail not shown here. Identical values can stand only once. Like-named read-outs stand apart in the source and are kept apart here.
# Tests used:
# [1] = system: D-aminoacylase derived from Sebekia benihana IFO14309; assay type: biochemical
# Experimental: (§1) The enzymatic reaction was performed in the same manner as in (1) except that the metal salts and enzyme inhibitors listed in Tables 10 and 11 (1 mM or 10 mM) were added to the reaction mixture.
# [2] = system: Sebekia benihana IFO14309; assay: Induction of D-aminoacylase, experiment 1 (PY liquid medium, 0.10% inducer); assay type: cell-based; conditions: 20 mM N-acetyl-D-methionine, 30° C., 20 min
# Experimental: First, Sebekia benihana IFO14309 was cultured with shaking for 74 hours in test tubes, each containing 8.0 ml of PY liquid medium (0.2% glycerol, 2.0% yeast extract, 2.0% polypeptone, pH 7.3) supplemented with 0.10% DL-leucine, 0.10% N-acetyl-DL-leucine, 0.10% DL-methionine, 0.10% N-acetyl-DL-methionine, DL-valine, or 0.10% N-acetyl-DL-valine as inducers (experiment 1).
# (§2) From the culture broth obtained in experiments 1, 2, and 3, the cells were collected by centrifugation at 8000 rpm (7000×g) for 20 min with a refrigerated centrifuge (Hitachi Koki Co., Ltd.). The collected cells were washed with 50 mM Tris-HCl buffer (pH 7.5), collected again by centrifugation using the same centrifuge, then stored at -20° C.
# (§3) The stored cells were suspended in 20 ml of 50 mM Tris-HCl buffer (pH 7.5) and were disrupted by sonication at 200 W for 15 min. The lysate was centrifuged at 15,000 rpm for 30 min with the above centrifuge, and the supernatant was obtained as a crude enzyme solution.
# (§4) The enzymatic reaction was performed in 1.0 ml of a reaction system containing 20 mM N-acetyl-D-methionine, 50 mM Tris-HCl buffer (pH 7.5), 1 mM CoCl2, and 100 μl of the enzyme solution at 30° C. for 20 min (experiment 1), 10 min (experiment 2), and 5 min (experiment 3). The reaction was stopped by adding a TCA solution.
# [3] = system: D-aminoacylase derived from Sebekia benihana IFO14309; assay: Influences of inhibitors on the activity of the enzyme; assay type: biochemical
# Experimental: as §1
# [4] = system: Sebekia benihana IFO14309; assay: Induction of D-aminoacylase, experiment 2 (seed culture, PY liquid medium, 0.10% inducer); assay type: cell-based; conditions: 20 mM N-acetyl-D-methionine, 30° C., 10 min
# Experimental: Second, a seed culture was prepared by incubating the strain in test tubes, each containing 5.0 ml of PY liquid medium for 71 hours. Then, 0.4 ml of the seed culture was inoculated with a 2-ml Komagome pipette into test tubes, each containing 8.0 ml of PY liquid medium supplemented with 0.10% DL-glutamine, 0.10% DL-histidine, 0.10% DL-isoleucine, 0.10% DL-phenylalanine, 0.10% proline, 0.10% DL-threonine, 0.10% DL-tryptophan, or 0.10% DL-valine as inducers, and cultivated for 74 hours with shaking (experiment 2).
# as §2, §3, §4
# [5] = system: Sebekia benihana IFO14309; assay: Induction of D-aminoacylase, experiment 3 (seed culture, 231 liquid medium, 0.05% inducer); assay type: cell-based; conditions: for Activity / Specific activity: experiment 3, 20 mM N-acetyl-D-methionine, 30° C., 5 min
# Experimental: Third, a seed culture was prepared by incubating the strain in test tubes, each containing 5.0 ml of PY liquid medium for 51 hours with shaking. The seed culture (0.4 ml) was then inoculated with a 2-ml Komagome pipette into test tubes, each containing 8.0 ml of 231 liquid medium (1.0% maltose; 0.2% N.Z.Amine, Type A; 0.1% yeast extract; 0.1% meat extract; pH 7.3) supplemented with 0.05% D-phenylalanine, 0.05% D-tryptophan, 0.05% D-valine, 0.05% L-phenylalanine, 0.05% L-tryptophan, or 0.05% L-valine as inducers, and cultivated for 48 hours with shaking (experiment 3).
# as §2, §3, §4
structure (smiles),measurement,setting,value
[Cl-].[Cl-].[Co+2] [CoCl2],Effect of metal ions on the enzyme (in words),[1],inhibited
same,D-Met,[1]; metal salt 1 mM,0.65 mM
same,Residual activity,[1]; metal salt 1 mM,54%
same,D-Met,[1]; metal salt 10 mM,0.11 mM
same,Residual activity,[1]; metal salt 10 mM,9.2%
"CC(C)CC(N)C(=O)O (racemic) [DL-Leucine, DL-leucine]",Activity,[2],0.315 U/ml of broth
same,Specific activity,[2],0.0967 U/mg
[F-].[Na+] [NaF],D-Met,[3]; inhibitor 1 mM,1.6 mM
same,Residual activity,[3]; inhibitor 1 mM,100%
same,D-Met,[3]; inhibitor 10 mM,1.4 mM
same,Residual activity,[3]; inhibitor 10 mM,88%
"NC(Cc1ccccc1)C(=O)O (racemic) [DL-Phe, DL-phenylalanine]",Activity,[4],0.190 U/ml of broth
same,Specific activity,[4],0.0701 U/mg
"CSCCC(N)C(=O)O (racemic) [DL-Methionine, DL-methionine]",Activity,[2],0.177 U/ml of broth
same,Specific activity,[2],0.0475 U/mg
[Ba+2].[Cl-].[Cl-] [BaCl2],D-Met,[1]; metal salt 1 mM,1.2 mM
same,Residual activity,[1]; metal salt 1 mM,100%
same,D-Met,[1]; metal salt 10 mM,1.1 mM
same,Residual activity,[1]; metal salt 10 mM,92%
"CC(=O)NC(CC(C)C)C(=O)O (racemic) [N-Ac-DL-Leucine, N-acetyl-DL-leucine]",Activity,[2],0.158 U/ml of broth
same,Specific activity,[2],0.0545 U/mg
"NC(Cc1c[nH]c2ccccc12)C(=O)O (racemic) [DL-Trp, DL-tryptophan]",Activity,[4],0.312 U/ml of broth
same,Specific activity,[4],0.119 U/mg
"CC(C)[C@H](N)C(=O)O [L-Val, L-valine]",Activity,[5],0.0265 U/ml of broth
same,Specific activity,[5],0.0161 U/mg
"c1ccc(-c2ccccn2)nc1 [2,2'-Bipyridyl]",D-Met,[3]; inhibitor 1 mM,1.6 mM
same,Residual activity,[3]; inhibitor 1 mM,100%
same,D-Met,[3]; inhibitor 10 mM,1.4 mM
same,Residual activity,[3]; inhibitor 10 mM,88%
[Cl-].[Cl-].[Zn+2] [ZnCl2],Effect of metal ions on the enzyme (in words),[1],inhibited
same,D-Met,[1]; metal salt 1 mM,0.50 mM
same,Residual activity,[1]; metal salt 1 mM,42%
same,D-Met,[1]; metal salt 10 mM,0 mM
same,Residual activity,[1]; metal salt 10 mM,0%
"O=C(O)[C@@H]1CCCN1 (racemic) [DL-Pro, proline]",Activity,[4],0.00867 U/ml of broth
same,Specific activity,[4],0.00286 U/mg
[Cl-].[K+] [KCl],D-Met,[1]; metal salt 1 mM,1.2 mM
same,Residual activity,[1]; metal salt 1 mM,100%
same,D-Met,[1]; metal salt 10 mM,1.1 mM
same,Residual activity,[1]; metal salt 10 mM,92%
[Ca+2].[Cl-].[Cl-] [CaCl2],D-Met,[1]; metal salt 1 mM,1.3 mM
same,Residual activity,[1]; metal salt 1 mM,108%
same,D-Met,[1]; metal salt 10 mM,1.1 mM
same,Residual activity,[1]; metal salt 10 mM,92%
OC(CS)C(O)CS (stereo not drawn) [DTT],D-Met,[3]; inhibitor 1 mM,0.13 mM
same,Residual activity,[3]; inhibitor 1 mM,8.1%
same,D-Met,[3]; inhibitor 10 mM,0.055 mM
same,Residual activity,[3]; inhibitor 10 mM,3.4%
[Cl-].[Na+] [NaCl],D-Met,[1],1.3 mM and 1.1 mM
same,Residual activity,[1],108% and 92%
"CSCCC(NC(C)=O)C(=O)O (racemic) [N-Ac-DL-Methionine, N-acetyl-DL-methionine]",Activity,[2],0.0713 U/ml of broth
same,Specific activity,[2],0.0186 U/mg
[Cl][Mn][Cl] [MnCl2],D-Met,[1]; metal salt 1 mM,1.3 mM
same,Residual activity,[1]; metal salt 1 mM,108%
same,D-Met,[1]; metal salt 10 mM,0.73 mM
same,Residual activity,[1]; metal salt 10 mM,61%
"C[C@@H](O)[C@H](N)C(=O)O (racemic) [DL-Thr, DL-threonine]",Activity,[4],0.0163 U/ml of broth
same,Specific activity,[4],0.00587 U/mg
"CC(C)[C@@H](N)C(=O)O [D-Val, D-valine]",Activity,[5],1.27 U/ml of broth
same,Specific activity,[5],0.780 U/mg
same,Induction of the enzyme (in words),[5]; used as inducers (Table 3),induced well
[Cl][Cu][Cl] [CuCl2],Effect of metal ions on the enzyme (in words),[1],inhibited
same,D-Met,[1]; metal salt 1 mM,0.13 mM
same,Residual activity,[1]; metal salt 1 mM,11%
same,D-Met,[1]; metal salt 10 mM,0 mM
same,Residual activity,[1]; metal salt 10 mM,0%
